Here are results for 20 molecules from patent publication US20220184041A1, “(AZA)Benzothiazolyl Substituted Pyrazole Compounds” (Pfizer Inc., priority 2020, published 2022).

One assay has as its target T1, Bap-tagged TTR protein (Homo sapiens, UniProt P02766).
T1 construct: Bap tag (biotin acceptor peptide, by own knowledge)
In words: KD determination by SPR (Surface Plasmon Resonance binding assay). To be noted: for Kd: 1:1 binding model, read-out: Geometric Mean KD (μM) [SPR]. As to the method: Affinity and Reversibility—The binding affinity and kinetics of binding were measured using Surface Plasmon Resonance based binding assay. […] Bap-tagged TTR protein was captured on a Streptavidin coated sensor chip to achieve about 2000 to 3000 RUs of surface density. All the samples were prepared in buffer consisting of 10 mM Sodium Phosphate, pH 7.6, 100 mM KCl, 0.005% Tween-20 and 2% DMSO. The same buffer was used as the running buffer during the experiments. Compound samples were injected at a flow rate of 30 μL/min for 90 seconds of association time followed by at least 240 seconds of dissociation period. The compounds were tested in a concentration series consisting of at least 6 samples (usually 10) made with 5-fold, 3-fold, or 2-fold dilution. […] Multiple blank injections were run before and after each compound series to allow double reference subtraction during data processing and analysis. […] A DMSO curve was run during each experiment to properly correct for excluded volume.
A general note: SPR reads the build-up and loss of mass on a sensor chip optically.

The target in assay [1] is Recombinant wild-type TTR (Homo sapiens, UniProt P02766). Put plainly: KD determination by ITC (Isothermal Titration Calorimetry). The following applies: 25° C., sequential binding model with 2 sites. As to the method:
KD Determination by ITC—Isothermal Titration Calorimetry
Recombinant wild-type TTR was diluted to 6.9 μM in 100 mM potassium chloride, 10 mM sodium phosphate pH 7.6, 2.5% DMSO, then degassed and transferred to the sample cell of a VP-ITC instrument (MicroCal). Compounds were diluted to 120 μM in an identical buffer, degassed, and injected 7 μL at a time into the protein solution at 25° C. with a reference power of 10 μCal/sec and 300 second spacing between injections.
Data were analyzed using VP-ITC analysis software in Origin. The data were corrected for heat of dilution then fit to a sequential binding model with 2 sites and K1, ΔH1, K2, and ΔH2 as independent parameters. If necessary, the protein concentration was adjusted by fitting the data to a two-independent-sites model and using the calculated N values to estimate the actual protein concentration that yields two total sites.
For orientation: In ITC the heat of successive injections is recorded.

Assay [2] has as its target T2, human TTR (biotinylated recombinant protein) (Homo sapiens, UniProt P02766).
T2 construct: biotin (biotinylated)
Put plainly: TTR SPA binding assay ([3H] tafamidis displacement), EC50 determination. The following applies: read-out: Geometric Mean EC50. As for the experimental part:
Binding of Examples to Transthyretin—EC50 Determination
Briefly, assays were prepared at room temperature in 384-well plates (Corning, 3767) containing 200 nL of test compound in DMSO (or DMSO as vehicle). […] The plates were incubated 1 hour prior to addition of 20 μL of 1.25 mg/mL SPA beads diluted in assay buffer. The assays were incubated an additional 10 hours to allow binding to reach equilibrium and the amount of receptor-ligand complex was determined by liquid scintillation counting using a 1450 Microbeta Trilux (Wallac).
The % effect values for test wells were calculated based on the total binding (vehicle, 0% effect) and non-specific binding (unlabeled ligand, 100% effect) wells on each assay plate. EC50 values were then determined using a standard 4 parameter logistic dose response equation.

The mark [3] stands for this setting: first site, read-out: Geometric Mean KD1 (μM) [ITC].
Setting [4] is: second site, read-out: Geometric Mean KD2 (μM) [ITC].
The mark [5] stands for this setting: SPA, 50 nM [3H] tafamidis, 100 ng human TTR.

pEC50: −log10 of the molar value. Like-named read-outs stand apart in the source and are kept apart here.

With `Cc1n[nH]c(C)c1-c1cccc2scnc12` [Example 1, 4-(3,5-dimethyl-1H-pyrazol-4-yl)-1,3-benzothiazole], the Kd was found to be 0.039 µM at Bap-tagged TTR protein, 0.025 µM in assay [1] (setting [3]) and 0.458 µM in assay [1] (setting [4]). Also, in assay [2] (setting [5]), the pEC50 is 7.51.

`Cc1n[nH]c(C)c1-c1cccc2ncsc12` [Example 2, 7-(3,5-dimethyl-1H-pyrazol-4-yl)-1,3-benzothiazole]: the figures for the Kd in assay [1] (setting [3]) and in assay [1] (setting [4]) were 0.005 µM and 0.431 µM, respectively.

Take `Cc1n[nH]c(C)c1-c1ccc(C)c2scnc12` [Example 3, 4-(3,5-dimethyl-1H-pyrazol-4-yl)-7-methyl-1,3-benzothiazole]: at Bap-tagged TTR protein, the Kd is 0.02 µM. Further, the negative logarithm of the EC50 (pEC50) in assay [2] (setting [5]) is 7.70.

`Cc1n[nH]c(C)c1-c1ccc(C(F)(F)F)c2scnc12` [Example 4, 4-(3,5-dimethyl-1H-pyrazol-4-yl)-7-(trifluoromethyl)-1,3-benzothiazole]: on Bap-tagged TTR protein, the Kd is 0.049 µM. Further, the pEC50 in assay [2] (setting [5]) was 7.40.

As to `Cc1n[nH]c(C)c1-c1ccc(C#N)c2scnc12` [Example 5, 4-(3,5-dimethyl-1H-pyrazol-4-yl)-1,3-benzothiazole-7-carbonitrile], the Kd at Bap-tagged TTR protein worked out at 0.052 µM. The pEC50 in assay [2] (setting [5]) was 7.28.

As to `Cc1nc2c(-c3c(C)n[nH]c3C)cccc2s1` [Example 6, 4-(3,5-dimethyl-1H-pyrazol-4-yl)-2-methyl-1,3-benzothiazole], at Bap-tagged TTR protein, the Kd was found to be 0.574 µM. In addition, the pEC50 in assay [2] (setting [5]) is 5.75.

As to `Cc1[nH]nc(C#N)c1-c1cccc2scnc12` [Example 7, 4-(1,3-benzothiazol-4-yl)-5-methyl-1H-pyrazole-3-carbonitrile], on Bap-tagged TTR protein, the Kd came out at 0.074 µM. In assay [2] (setting [5]), the pEC50 is 7.18.

With `Cc1[nH]nc(C#N)c1-c1ccc(C)c2scnc12` [Example 8, 5-methyl-4-(7-methyl-1,3-benzothiazol-4-yl)-1H-pyrazole-3-carbonitrile], the Kd at Bap-tagged TTR protein worked out at 0.027 µM. Also, the pEC50 in assay [2] was 7.71.

Turning to `Cc1[nH]nc(C#N)c1-c1ccc(C(F)(F)F)c2scnc12` [Example 9, 5-methyl-4-[7-(trifluoromethyl)-1,3-benzothiazol-4-yl]-1H-pyrazole-3-carbonitrile], the Kd on Bap-tagged TTR protein turned out to be 0.62 µM. The pEC50 in assay [2] is 7.45.

Turning to `Cc1n[nH]c(C)c1-c1nccc2scnc12` [Example 10, 4-(3,5-dimethyl-1H-pyrazol-4-yl)[1,3]thiazolo[4,5-c]pyridine], the Kd on Bap-tagged TTR protein is 0.297 µM. Also, the pEC50 in assay [2] (setting [5]) is 6.05.

Take `COc1ccc(-c2c(C)n[nH]c2C)c2ncsc12` [Example 11, 4-(3,5-dimethyl-1H-pyrazol-4-yl)-7-methoxy-1,3-benzothiazole]: the pEC50 in assay [2] (setting [5]) was 7.44.

As for `Cc1n[nH]c(C)c1-c1ccc(F)c2scnc12` [Example 12, 4-(3,5-dimethyl-1H-pyrazol-4-yl)-7-fluoro-1,3-benzothiazole], in assay [2] (setting [5]), the pEC50 was 7.43.

In the case of `Cc1cc(-c2c(C)n[nH]c2C)c2ncsc2c1` [Example 13, 4-(3,5-dimethyl-1H-pyrazol-4-yl)-6-methyl-1,3-benzothiazole], the Kd on Bap-tagged TTR protein amounted to 0.058 µM. The pEC50 in assay [2] is 7.67.

Regarding `COc1cc(-c2c(C)n[nH]c2C)c2ncsc2c1` [Example 14, 4-(3,5-dimethyl-1H-pyrazol-4-yl)-6-methoxy-1,3-benzothiazole], the Kd at Bap-tagged TTR protein came to 0.031 µM. The pEC50 in assay [2] is 7.61.

In the case of `Cc1n[nH]c(C)c1-c1cc(F)cc2scnc12` [Example 15, 4-(3,5-dimethyl-1H-pyrazol-4-yl)-6-fluoro-1,3-benzothiazole], the Kd on Bap-tagged TTR protein is 0.027 µM. The pEC50 in assay [2] was 7.69.

For the molecule `Cc1n[nH]c(C)c1-c1cc(C#N)cc2scnc12` [Example 16, 4-(3,5-dimethyl-1H-pyrazol-4-yl)-1,3-benzothiazole-6-carbonitrile], in assay [2] (setting [5]), the pEC50 was 6.80.

Consider `Cc1n[nH]c(C)c1-c1c(F)ccc2scnc12` [Example 17, 4-(3,5-dimethyl-1H-pyrazol-4-yl)-5-fluoro-1,3-benzothiazole], for which, in assay [2] (setting [5]), the pEC50 is 7.54.

On to `Cc1[nH]nc(C(F)(F)F)c1-c1cccc2scnc12` [Example 18, 4-[5-methyl-3-(trifluoromethyl)-1H-pyrazol-4-yl]-1,3-benzothiazole], for which, in assay [2] (setting [5]), the pEC50 was 6.88.

`Cc1n[nH]c(C)c1-c1ccnc2scnc12` [Example 19, 7-(3,5-dimethyl-1H-pyrazol-4-yl)[1,3]thiazolo[5,4-b]pyridine]: in assay [2] (setting [5]), the pEC50 is 6.78.

As to `O=C(O)c1ccc2nc(-c3cc(Cl)cc(Cl)c3)oc2c1` [tafamidis, 2-(3,5-dichlorophenyI)-1,3-benzoxazole-6-carboxylic acid, reference compound], the “reversibility of binding to TTR” value on Bap-tagged TTR protein is reported as “reversible”. Besides, the t1/2 on Bap-tagged TTR protein (tafamidis binding to TTR, n=24) worked out at 40.8 s.

A word on the pEC50: it is the negative decadic logarithm of the EC50, by convention in mol/L.
